{"source": "the RepoRT retention time repository (doi:10.1039/c4mb00346b)", "data": [{"assay": "HILIC, Merck SeQuant ZIC-pHILIC, 150 × 2.1 mm, 5 µm, 0.1 mL/min, estimated dead time 3.3 min; A: acetonitrile; B: water + 10 mM ammonium carbonate; gradient (min/%B) 0/20 30/80", "conditions": "stereoisomer not certain", "units": {"LC retention time": "min"}, "values": [{"smiles": "NC(=O)C1=CN(C2OC(COP(=O)(O)OP(=O)(O)OCC3OC(n4cnc5c(N)ncnc54)C(OP(=O)(O)O)C3O)C(O)C2O)C=CC1", "note": "(stereo not drawn) [NADPH]", "LC retention time": 14.8}, {"smiles": "NC(=O)c1cccnc1", "note": "[Nicotinamide]", "LC retention time": 4.7}, {"smiles": "CCCCCCCC(=O)OC(CC(=O)[O-])C[N+](C)(C)C", "note": "(stereo not drawn) [Octanoyl-carnitine]", "LC retention time": 4.1}, {"smiles": "CCC(NC(=O)CCC(N)C(=O)O)C(=O)NCC(=O)O", "note": "(stereo not drawn) [Ophthalmic acid]", "LC retention time": 11.2}, {"smiles": "NCCCC(N)C(=O)O", "note": "(stereo not drawn) [Ornithine]", "LC retention time": 20.8}, {"smiles": "O=P(O)(O)OCC1OC(OP(=O)(O)OP(=O)(O)O)C(O)C1O", "note": "[PRPP (5-Phospho-alpha-D-ribose 1-diphosphate)]", "LC retention time": 16.5}, {"smiles": "CC(C)(CO)C(O)C(=O)NCCC(=O)O", "note": "(stereo not drawn) [Pantothenate]", "LC retention time": 6.1}, {"smiles": "NC(Cc1ccccc1)C(=O)O", "note": "(stereo not drawn) [Phenylalanine]", "LC retention time": 7.3}, {"smiles": "CN(CC(=O)O)C(N)=NP(=O)(O)O", "note": "[Phosphocreatine]", "LC retention time": 12.7}, {"smiles": "C=C(OP(=O)(O)O)C(=O)[O-]", "note": "[Phosphoenolpyruvate]", "LC retention time": 15.1}, {"smiles": "O=C(O)C1CCCN1", "note": "(stereo not drawn) [Proline]", "LC retention time": 10.2}, {"smiles": "CCC(=O)OC(CC(=O)[O-])C[N+](C)(C)C", "note": "(stereo not drawn) [Propionyl-carnitine]", "LC retention time": 7.2}, {"smiles": "O=C(O)C1(O)CC(O)C(O)C(O)C1", "note": "(stereo not drawn) [Quinic acid]", "LC retention time": 10.4}, {"smiles": "O=C(O)c1cccnc1C(=O)O", "note": "[Quinolinic acid]", "LC retention time": 12.7}, {"smiles": "Nc1ncnc2c1ncn2C1OC(CSCCC([NH3+])C(=O)[O-])C(O)C1O", "note": "(stereo not drawn) [S-Adenosyl-homocysteine]", "LC retention time": 11.2}, {"smiles": "C[S+](CCC(N)C(=O)[O-])CC1OC(n2cnc3c(N)ncnc32)C(O)C1O", "note": "(stereo not drawn) [S-Adenosyl-methionine]", "LC retention time": 14.2}, {"smiles": "CSc1ncc(CC(C(=O)[O-])[N+](C)(C)C)[nH]1", "note": "(stereo not drawn) [S-Methyl-ergothioneine]", "LC retention time": 7.9}, {"smiles": "Nc1ncnc2c1ncn2C1OC(CSCC(N)C(=O)O)C(O)C1O", "note": "(stereo not drawn) [S-adenosyl-cysteine]", "LC retention time": 10.6}, {"smiles": "Nc1c(C(=O)NC(CC(=O)O)C(=O)O)ncn1C1OC(COP(=O)(O)O)C(O)C1O", "note": "(stereo not drawn) [SAICAR]", "LC retention time": 17.1}, {"smiles": "NC(CCCCNC(CCC(=O)O)C(=O)O)C(=O)O", "note": "(stereo not drawn) [Saccharopine]", "LC retention time": 13.3}, {"smiles": "O=C(CO)C(O)C(O)C(O)C(O)COP(=O)(O)O", "note": "(stereo not drawn) [Sedoheptulose-7-phosphate]", "LC retention time": 13.7}, {"smiles": "NC(CO)C(=O)O", "note": "(stereo not drawn) [Serine]", "LC retention time": 13.1}, {"smiles": "O=C(O)CCC(=O)O", "note": "[Succinate]", "LC retention time": 12.6}, {"smiles": "NCCS(=O)(=O)O", "note": "[Taurine]", "LC retention time": 12.1}, {"smiles": "CC(O)C(N)C(=O)O", "note": "(stereo not drawn) [Threonine]", "LC retention time": 11.7}, {"smiles": "O=P(O)(O)OCC1OC(OC2OC(CO)C(O)C(O)C2O)C(O)C(O)C1O", "note": "(stereo not drawn) [Trehalose-6-phosphate]", "LC retention time": 14.7}, {"smiles": "OCC1OC(OC2OC(CO)C(O)C(O)C2O)C(O)C(O)C1O", "note": "(stereo not drawn) [Trehalose]", "LC retention time": 13.6}, {"smiles": "C[N+](C)(C)C(Cc1cnc[nH]1)C(=O)[O-]", "note": "(stereo not drawn) [Trimethyl-histidine (hercynine)]", "LC retention time": 9.7}, {"smiles": "C[N+](C)(C)CCCCC(N)C(=O)[O-]", "note": "(stereo not drawn) [Trimethyl-lysine]", "LC retention time": 20.7}, {"smiles": "C[N+](C)(C)C(Cc1c[nH]c2ccccc12)C(=O)[O-]", "note": "(stereo not drawn) [Trimethyl-tryptophan (hypaphorine)]", "LC retention time": 6}, {"smiles": "NC(Cc1c[nH]c2ccccc12)C(=O)O", "note": "(stereo not drawn) [Tryptophan]", "LC retention time": 8.7}, {"smiles": "NC(Cc1ccc(O)cc1)C(=O)O", "note": "(stereo not drawn) [Tyrosine]", "LC retention time": 10.3}, {"smiles": "CC(=O)NC1C(OP(=O)(O)OP(=O)(O)OCC2OC(n3ccc(=O)[nH]c3=O)C(O)C2O)OC(CO)C(O)C1O", "note": "(stereo not drawn) [UDP-acetyl-glucosamine]", "LC retention time": 12.8}, {"smiles": "O=C(O)C1OC(OP(=O)(O)OP(=O)(O)OCC2OC(n3ccc(=O)[nH]c3=O)C(O)C2O)C(O)C(O)C1O", "note": "(stereo not drawn) [UDP-glucuronate]", "LC retention time": 16.5}, {"smiles": "O=c1ccn(C2OC(COP(=O)(O)OP(=O)(O)O)C(O)C2O)c(=O)[nH]1", "note": "(stereo not drawn) [UDP]", "LC retention time": 14}, {"smiles": "O=c1ccn(C2OC(COP(=O)(O)O)C(O)C2O)c(=O)[nH]1", "note": "(stereo not drawn) [UMP]", "LC retention time": 12.6}, {"smiles": "O=c1ccn(C2OC(COP(=O)(O)OP(=O)(O)OP(=O)(O)O)C(O)C2O)c(=O)[nH]1", "note": "(stereo not drawn) [UTP]", "LC retention time": 15.1}, {"smiles": "O=c1cc[nH]c(=O)[nH]1", "note": "[Uracil]", "LC retention time": 7.2}, {"smiles": "O=c1[nH]c(=O)c2[nH]c(=O)[nH]c2[nH]1", "note": "[Urate]", "LC retention time": 10.7}, {"smiles": "O=c1ccn(C2OC(CO)C(O)C2O)c(=O)[nH]1", "note": "(stereo not drawn) [Uridine]", "LC retention time": 7.1}, {"smiles": "CC(C)C(N)C(=O)O", "note": "(stereo not drawn) [Valine]", "LC retention time": 9.8}, {"smiles": "O=C(O)C=C(CC(=O)O)C(=O)O", "note": "[cis-Aconitate]", "LC retention time": 15.5}, {"smiles": "OC1C(O)C(O)C(O)C(O)C1O", "note": "(stereo not drawn) [myo-Inositol]", "LC retention time": 14.4}]}]}
